Tests used:
[1] = system: Diabrotica balteata (Corn Root Worm); assay: Example B1: Diabrotica balteata (corn root worm), sprayed maize sprouts; format: in vivo; details: 96 h, application rate 200 ppm, L2 larvae, 4 days after infestation, read-out: control in at least one of the two categories (mortality or growth inhibition)
Experimental: Example B1: Diabrotica balteata (Corn Root Worm)
Maize sprouts placed onto an agar layer in 24-well microtiter plates were treated with aqueous test solutions prepared from 10′000 ppm DMSO stock solutions by spraying. After drying, the plates were infested with L2 larvae (6 to 10 per well). The samples were assessed for mortality and growth inhibition in comparison to untreated samples 4 days after infestation.

[2] = system: Chilo suppressalis (Striped Rice Stemborer); assay: Example B4: Chilo suppressalis (striped rice stemborer), artificial diet; format: in vivo; details: 144 h, application rate 200 ppm, L2 larvae, 6 days after infestation, read-out: control in at least one of the three categories (mortality, anti-feedant or growth inhibition)
Experimental: Example B4: Chilo suppressalis (Striped Rice Stemborer)
24-well microtiter plates with artificial diet were treated with aqueous test solutions prepared from 10′000 ppm DMSO stock solutions by pipetting. After drying, the plates were infested with L2 larvae (6-8 per well). The samples were assessed for mortality, anti-feeding effect, and growth inhibition in comparison to untreated samples 6 days after infestation. Control of Chilo suppressalis by a test sample is given when at least one of the categories mortality, anti-feedant effect, and growth inhibition is higher than the untreated sample.

[3] = system: Plutella xylostella (Diamond Back Moth); assay: Example B5: Plutella xylostella (diamond back moth), artificial diet, 24-well; format: in vivo; details: 192 h, application rate 200 ppm, eggs, 8 days after infestation, read-out: control in at least one of the two categories (mortality or growth inhibition)
Experimental: Example B5: Plutella xylostella (Diamond Back Moth)
24-well microtiter plates with artificial diet were treated with aqueous test solutions prepared from 10′000 ppm DMSO stock solutions by pipetting. After drying, Plutella eggs were pipetted through a plastic stencil onto a gel blotting paper and the plate was closed with it. The samples were assessed for mortality and growth inhibition in comparison to untreated samples 8 days after infestation.

[4] = system: Spodoptera littoralis (Egyptian Cotton Leaf Worm); assay: Example B9: Spodoptera littoralis (Egyptian cotton leaf worm), sprayed cotton leaf discs; format: in vivo; details: foliar, 72 h, application rate 200 ppm, L1 larvae, 3 days after infestation, read-out: control in at least one of the three categories (mortality, anto-feedant or growth inhibition)
[5] = system: Spodoptera littoralis (Egyptian Cotton Leaf Worm); assay: Example B10: Spodoptera littoralis (Egyptian cotton leaf worm), uptake via lettuce roots from agar; format: in vivo; details: 144 h, test rate 12.5 ppm, eggs, 6 days after infestation, read-out: control in at least one of the three categories (mortality, anti-feedant, or growth inhibition)
Excerpt: Example B10: Spodoptera Littoralis (Egyptian Cotton Leaf Worm)
Test compounds were applied by pipette from 10′000 ppm DMSO stock solutions into 24-well plates and mixed with agar. Lettuce seeds were placed onto the agar and the multi well plate was closed by another plate which contained also agar. After 7 days the compound was absorbed by the roots and the lettuce grew into the lid plate. The lettuce leaves were then cut off into the lid plate. Spodoptera eggs were pipetted through a plastic stencil onto a humid gel blotting paper and the lid plate was closed with it. The samples were assessed for mortality, anti-feedant effect and growth inhibition in comparison to untreated samples 6 days after infestation.

[6] = system: Myzus persicae (Green Peach Aphid); assay: Example B8: Myzus persicae (green peach aphid), intrinsic activity; format: in vivo; details: 120 h, test rate 12 ppm, 5 days after infestation
Excerpt: Example B8: Myzus persicae (Green Peach Aphid): Intrinsic Activity
Test compounds prepared from 10′000 ppm DMSO stock solutions were applied by pipette into 24-well microtiter plates and mixed with sucrose solution. The plates were closed with a stretched Parafilm. A plastic stencil with 24 holes was placed onto the plate and infested pea seedlings were placed directly on the Parafilm. The infested plate was closed with a gel blotting paper and another plastic stencil and then turned upside down. The samples were assessed for mortality 5 days after infestation.

[7] = system: Myzus persicae (Green Peach Aphid); assay: Example B12: Myzus persicae (green peach aphid), 96-well sucrose solution; format: in vivo; details: 120 h, application rate 50 ppm, 5 days after infestation
Excerpt: Example B12: Myzus persicae (Green Peach Aphid)
Test compounds prepared from 10′000 ppm DMSO stock solutions were applied by a liquid handling robot into 96-well microtiter plates and mixed with a sucrose solution. Parafilm was stretched over the 96-well microtiter plate and a plastic stencil with 96 holes was placed onto the plate. Aphids were sieved into the wells directly onto the Parafilm. The infested plates were closed with a gel blotting card and a second plastic stencil and then turned upside down. The samples were assessed for mortality 5 days after infestation.

[8] = system: Plutella xylostella (Diamondback Moth); assay: Example B13: Plutella xylostella (diamondback moth), artificial diet, 96-well; format: in vivo; details: 216 h, application rate 500 ppm, eggs/L1 larvae, 9 days after infestation
Experimental: Example B13: Plutella xylostella (Diamondback Moth)
96-well microtiter plates containing artificial diet were treated with aqueous test solutions, prepared from 10′000 ppm DMSO stock solutions, by a liquid handling robot. After drying, eggs (˜30 per well) were infested onto a netted lid which was suspended above the diet. The eggs hatch and L1 larvae move down to the diet. The samples were assessed for mortality 9 days after infestation.

[9] = system: Euschistus heros (Neotropical Brown Stink Bug); assay: Example B2: Euschistus heros (neotropical brown stink bug), sprayed soybean leaves; format: in vivo; details: 120 h, application rate 200 ppm, N2 nymphs, 5 days after infestation, read-out: control in at least one of the two categories (mortality or growth inhibition)
Experimental: Example B2: Euschistus heros (Neotropical Brown Stink Bug)
Soybean leaves on agar in 24-well microtiter plates were sprayed with aqueous test solutions prepared from 10′000 ppm DMSO stock solutions. After drying the leaves were infested with N2 nymphs. The samples were assessed for mortality and growth inhibition in comparison to untreated samples 5 days after infestation.

| melting point | SMILES | percent control (mortality or growth inhibition) at 200 ppm [1] | percent control (mortality, anti-feedant or growth inhibition) at 200 ppm [2] | percent control (mortality or growth inhibition) at 200 ppm [3] | percent control (mortality, anti-feedant or growth inhibition) at 200 ppm [4] | percent control (mortality, anti-feedant or growth inhibition) at 12.5 ppm [5] | mortality at 12 ppm [6] | mortality at 50 ppm [7] | mortality at 500 ppm [8] | percent control (mortality or growth inhibition) at 200 ppm [9] |
| --- | --- | --- | --- | --- | --- | --- | --- | --- | --- | --- |
|  | CC(NC(=O)c1cc(C(F)(F)F)cc(C2(C#N)CC2)c1)c1nc(Br)nn1-c1ccc(C#N)cn1 (centres unmarked) [Compound P1, N-[1-[5-bromo-2-(5-cyano-2-pyridyl)-1,2,4-triazol-3-yl]ethyl]-3-(1-cyanocyclopropyl)-5-(trifluoromethyl)benzamide] | ≥ 80% | ≥ 80% | ≥ 80% | ≥ 80% | ≥ 80% |  |  |  |  |
|  | CC(NC(=O)c1cc(C(F)(F)F)nc(C2(C#N)CC2)c1)c1nc(Br)nn1-c1ncc(OCC(F)F)cn1 (centres unmarked) [Compound P4, N-[1-[5-bromo-2-[5-(2,2-difluoroethoxy)pyrimidin-2-yl]-1,2,4-triazol-3-yl]ethyl]-2-(1-cyanocyclopropyl)-6-(trifluoromethyl)pyridine-4-carboxamide] | ≥ 80% | ≥ 80% | ≥ 80% | ≥ 80% |  | ≥ 80% |  |  |  |
|  | CC(NC(=O)c1cc(C2CC2(F)F)cc(C(F)(F)F)c1)c1nc(Br)nn1-c1ccc(OC(F)F)cn1 (centres unmarked) [Compound P7, N-[1-[5-bromo-2-[5-(difluoromethoxy)-2-pyridyl]-1,2,4-triazol-3-yl]ethyl]-3-(2,2-difluorocyclopropyl)-5-(trifluoromethyl)benzamide] | ≥ 80% | ≥ 80% | ≥ 80% | ≥ 80% |  |  | ≥ 80% | ≥ 80% |  |
|  | CC(NC(=O)c1cc(C2CC2(F)F)cc(C(F)(F)F)c1)c1nc(Br)nn1-c1ncc(OCC(F)(F)F)cn1 (centres unmarked) [Compound P11, N-[1-[5-bromo-2-[5-(2,2,2-trifluoroethoxy)pyrimidin-2-yl]-1,2,4-triazol-3-yl]ethyl]-3-(2,2-difluorocyclopropyl)-5-(trifluoromethyl)benzamide] | ≥ 80% | ≥ 80% | ≥ 80% | ≥ 80% |  |  |  | ≥ 80% | ≥ 80% |
|  | CC(NC(=O)c1cc(C2CC2)nc(C(F)(F)F)c1)c1nc(Br)nn1-c1ncc(OCC(F)F)cn1 (centres unmarked) [Compound P14, N-[1-[5-bromo-2-[5-(2,2-difluoroethoxy)pyrimidin-2-yl]-1,2,4-triazol-3-yl]ethyl]-2-cyclopropyl-6-(trifluoromethyl)pyridine-4-carboxamide] | ≥ 80% | ≥ 80% | ≥ 80% | ≥ 80% |  |  | ≥ 80% | ≥ 80% |  |
|  | CC(NC(=O)c1cc(C2CC2)cc(C(F)(F)F)c1)c1nc(Br)nn1-c1ncc(OC(F)F)cn1 (centres unmarked) [Compound P26, N-[1-[5-bromo-2-[5-(difluoromethoxy)pyrimidin-2-yl]-1,2,4-triazol-3-yl]ethyl]-3-cyclopropyl-5-(trifluoromethyl)benzamide] | ≥ 80% | ≥ 80% | ≥ 80% | ≥ 80% |  |  | ≥ 80% | ≥ 80% |  |
| 157 to 159 °C | CC(NC(=O)c1cc(C(F)(F)F)nc(C2(C#N)CC2)c1)c1nc(Br)nn1-c1ncc(OCC(F)(F)F)cn1 (centres unmarked) [Compound P34, N-[1-[5-bromo-2-[5-(2,2,2-trifluoroethoxy)pyrimidin-2-yl]-1,2,4-triazol-3-yl]ethyl]-2-(1-cyanocyclopropyl)-6-(trifluoromethyl)pyridine-4-carboxamide] |  |  |  |  |  |  |  |  |  |
|  | CC(NC(=O)c1cc(C(F)(F)F)cc(C(C)(C)C#N)c1)c1nc(Br)nn1-c1ncc(OC(F)F)cn1 (centres unmarked) [Compound P35, N-[1-[5-bromo-2-[5-(difluoromethoxy)pyrimidin-2-yl]-1,2,4-triazol-3-yl]ethyl]-3-(1-cyano-1-methyl-ethyl)-5-(trifluoromethyl)benzamide] | ≥ 80% | ≥ 80% | ≥ 80% | ≥ 80% | ≥ 80% | ≥ 80% |  | ≥ 80% |  |
|  | CC(NC(=O)c1cc(C(F)(F)F)cc(C(C)(C)C#N)c1)c1nc(Br)nn1-c1ccc(C#N)cn1 (centres unmarked) [Compound P36, N-[1-[5-bromo-2-(5-cyano-2-pyridyl)-1,2,4-triazol-3-yl]ethyl]-3-(1-cyano-1-methyl-ethyl)-5-(trifluoromethyl)benzamide] | ≥ 80% | ≥ 80% | ≥ 80% | ≥ 80% |  |  |  | ≥ 80% | ≥ 80% |
|  | CC(NC(=O)c1cc(C(F)(F)F)cc(C(C)(C)C#N)c1)c1nc(Br)nn1-c1ccc(OC(F)F)cn1 (centres unmarked) [Compound P37, N-[1-[5-bromo-2-[5-(difluoromethoxy)-2-pyridyl]-1,2,4-triazol-3-yl]ethyl]-3-(1-cyano-1-methyl-ethyl)-5-(trifluoromethyl)benzamide] | ≥ 80% | ≥ 80% | ≥ 80% | ≥ 80% |  |  |  |  | ≥ 80% |
